Source: US20240383900A1, “SUBSTITUTED PYRAZOLO [1,5-A]PYRIMIDINE-7-AMINE COMPOUNDS AS CDK INHIBITORS AND THEIR THERAPEUTIC USE” (Carrick Therapeutics Limited, priority 2021, published 2024)
Like-named read-outs stand apart in the source and are kept apart here.

Key:
A673 cells [1] = test: Cytotoxicity in A673 cells (Cell Titer Glo viability); assay type: cell-based; details: for Ratio of Biochemical Potency:Cellular Potency: CDK12 IC50 / A673 IC50; for IC50: Homo sapiens
Procedure, shortened: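 Cells plated at 1.2×10^5 per well in DMEM+10% FBS, 24 h, then compound series ± MLN4924 (30 nM final) in 0.1% DMSO for 72 h. Viability by Cell Titer Glo luminescence, normalised to vehicle (100%) and 0.1% Triton x-100 (0%); MLN4924 curves normalised to MLN4924-treated controls.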

Human CDK7/CycH/MAT1 = Human CDK7/CycH/MAT1 (Homo sapiens (Human), UniProt P50613); test: Radiometric protein kinase assay (33PanQinase Activity Assay), CDK7; assay type: biochemical; details: ATP 3 μM
Sequence of Human CDK7/CycH/MAT1 (P50613 whole entry): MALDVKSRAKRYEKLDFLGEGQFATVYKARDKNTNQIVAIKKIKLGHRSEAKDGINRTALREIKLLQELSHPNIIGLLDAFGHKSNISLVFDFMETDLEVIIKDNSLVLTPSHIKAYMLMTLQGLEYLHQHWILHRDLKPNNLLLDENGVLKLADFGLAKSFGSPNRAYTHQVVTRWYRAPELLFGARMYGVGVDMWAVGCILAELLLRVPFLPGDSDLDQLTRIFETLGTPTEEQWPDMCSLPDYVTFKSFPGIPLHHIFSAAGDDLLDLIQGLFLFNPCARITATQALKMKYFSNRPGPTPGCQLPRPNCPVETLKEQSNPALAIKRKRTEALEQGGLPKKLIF
Sequence of Human CDK7/CycH/MAT1 (P51946 whole entry partner): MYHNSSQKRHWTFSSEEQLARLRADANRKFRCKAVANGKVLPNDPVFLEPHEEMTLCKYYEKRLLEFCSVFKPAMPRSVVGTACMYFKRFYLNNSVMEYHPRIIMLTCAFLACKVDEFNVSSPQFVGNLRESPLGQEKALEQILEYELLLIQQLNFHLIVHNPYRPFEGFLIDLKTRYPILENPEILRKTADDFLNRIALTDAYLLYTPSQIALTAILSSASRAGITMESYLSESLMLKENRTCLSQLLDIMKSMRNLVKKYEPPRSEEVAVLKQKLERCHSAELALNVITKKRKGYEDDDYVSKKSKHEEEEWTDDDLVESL
Sequence of Human CDK7/CycH/MAT1 (P51948 whole entry partner): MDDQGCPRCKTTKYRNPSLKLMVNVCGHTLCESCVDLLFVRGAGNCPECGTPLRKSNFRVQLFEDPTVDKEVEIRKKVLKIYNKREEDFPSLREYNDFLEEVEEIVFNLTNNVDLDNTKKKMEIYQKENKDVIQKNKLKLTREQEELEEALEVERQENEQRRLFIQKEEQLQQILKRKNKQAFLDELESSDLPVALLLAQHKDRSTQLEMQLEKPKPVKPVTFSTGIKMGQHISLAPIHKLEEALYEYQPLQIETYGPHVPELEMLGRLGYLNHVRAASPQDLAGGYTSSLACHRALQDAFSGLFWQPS

A673 cells [2] = test: A673 cytotoxic potency shift in the presence of MLN4924 (cyclin K degrader activity); assay type: cell-based; details: 30 nM MLN4924, 72 hours
Experimental: Inhibition of cell viability by test compounds was assessed in A673 cells (ATCC CRL-1598) and the compound mode of action was attributed to a “molecular-glue”/cyclin K-degradation mechanism by probing for a loss of compound potency in the presence of the NEDD8-activating enzyme inhibitor, MLN4924.
Cells were plated in 96-well plates at a density of […] viable cells per well in 200 μL fully supplemented growth medium (DMEM+10% heat inactivated foetal bovine serum) and incubated for 24 hours in standard tissue culture conditions. Compounds, including MLN4924, were solubilised in DMSO and then diluted in fully supplemented growth medium at 2× their final assay concentration such that the final DMSO concentration was 0.1%. Growth medium in the assay plates was replaced with 50 μL of growth medium containing 2×MLN4924 (final assay concentration: 30 nM, where tested) or vehicle only and 50 μL of growth medium containing a 2× compound concentration series or vehicle only such that each compound was at 1× final assay concentration in 100 μL.
Cells were then incubated for 72 hours in standard tissue culture conditions before viability was assessed using 50 μL Cell Titer Glo reagent (Promega) per well and luminescence measured on an EnVision plate reader. Data were normalised to vehicle control (100%) and cells treated with 0.1% Triton x-100 for 1 hour before viability measurement (0%; full cell kill). IC50 values were determined using a semi-logistic curve fit with parameters “top” fixed at 100% and “bottom” at or below 0%. Viability curves generated in the presence of MLN4924 were normalised and fixed to controls treated with MLN4924.

Human CDK12 wt/CycK = Human CDK12 wt/CycK (Homo sapiens (Human), UniProt Q9NYV4); test: Radiometric protein kinase assay (33PanQinase Activity Assay), CDK12; assay type: biochemical; details: for CDK7/CDK12: ratio of CDK7 IC50 to CDK12 IC50, greater than 1 indicates selectivity for CDK12
Sequence of Human CDK12 wt/CycK (Q9NYV4 whole entry): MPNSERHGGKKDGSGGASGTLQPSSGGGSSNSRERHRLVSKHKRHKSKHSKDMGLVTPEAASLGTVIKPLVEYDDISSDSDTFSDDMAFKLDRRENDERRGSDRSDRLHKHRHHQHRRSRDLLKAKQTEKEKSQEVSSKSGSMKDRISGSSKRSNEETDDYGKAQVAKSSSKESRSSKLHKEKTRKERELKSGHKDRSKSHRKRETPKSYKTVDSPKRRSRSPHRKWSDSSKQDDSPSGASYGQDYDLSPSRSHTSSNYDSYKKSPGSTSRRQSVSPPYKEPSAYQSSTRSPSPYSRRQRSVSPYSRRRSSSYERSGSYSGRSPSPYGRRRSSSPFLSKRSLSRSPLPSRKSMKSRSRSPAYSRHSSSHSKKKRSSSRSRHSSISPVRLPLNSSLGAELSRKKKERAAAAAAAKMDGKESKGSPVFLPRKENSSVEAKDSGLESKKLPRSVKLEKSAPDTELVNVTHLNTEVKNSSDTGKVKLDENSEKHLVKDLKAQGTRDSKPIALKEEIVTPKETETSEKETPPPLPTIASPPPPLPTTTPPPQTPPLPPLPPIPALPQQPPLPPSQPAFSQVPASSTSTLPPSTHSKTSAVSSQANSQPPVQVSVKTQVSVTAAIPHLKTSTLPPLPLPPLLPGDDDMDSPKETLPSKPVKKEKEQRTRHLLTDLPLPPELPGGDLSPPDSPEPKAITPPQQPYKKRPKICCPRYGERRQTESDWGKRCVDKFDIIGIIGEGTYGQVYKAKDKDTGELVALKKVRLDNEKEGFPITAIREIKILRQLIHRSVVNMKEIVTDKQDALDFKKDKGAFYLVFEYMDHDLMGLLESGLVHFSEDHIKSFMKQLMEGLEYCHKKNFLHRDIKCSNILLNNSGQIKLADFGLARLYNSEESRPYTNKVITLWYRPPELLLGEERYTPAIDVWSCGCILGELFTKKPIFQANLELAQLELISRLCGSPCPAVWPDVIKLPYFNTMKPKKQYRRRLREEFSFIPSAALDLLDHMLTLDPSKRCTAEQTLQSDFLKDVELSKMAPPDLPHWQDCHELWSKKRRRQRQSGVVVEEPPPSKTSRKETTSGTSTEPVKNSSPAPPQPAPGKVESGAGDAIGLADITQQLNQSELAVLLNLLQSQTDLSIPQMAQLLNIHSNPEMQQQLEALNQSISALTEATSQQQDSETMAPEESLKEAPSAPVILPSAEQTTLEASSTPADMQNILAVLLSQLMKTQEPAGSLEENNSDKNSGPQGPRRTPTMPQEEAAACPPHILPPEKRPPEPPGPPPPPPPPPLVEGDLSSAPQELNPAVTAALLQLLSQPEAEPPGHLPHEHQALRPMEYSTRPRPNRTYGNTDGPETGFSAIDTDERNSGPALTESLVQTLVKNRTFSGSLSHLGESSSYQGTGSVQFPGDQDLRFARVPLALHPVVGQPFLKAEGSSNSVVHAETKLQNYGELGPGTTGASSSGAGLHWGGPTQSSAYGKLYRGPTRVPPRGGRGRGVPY
Sequence of Human CDK12 wt/CycK (O75909 whole entry partner): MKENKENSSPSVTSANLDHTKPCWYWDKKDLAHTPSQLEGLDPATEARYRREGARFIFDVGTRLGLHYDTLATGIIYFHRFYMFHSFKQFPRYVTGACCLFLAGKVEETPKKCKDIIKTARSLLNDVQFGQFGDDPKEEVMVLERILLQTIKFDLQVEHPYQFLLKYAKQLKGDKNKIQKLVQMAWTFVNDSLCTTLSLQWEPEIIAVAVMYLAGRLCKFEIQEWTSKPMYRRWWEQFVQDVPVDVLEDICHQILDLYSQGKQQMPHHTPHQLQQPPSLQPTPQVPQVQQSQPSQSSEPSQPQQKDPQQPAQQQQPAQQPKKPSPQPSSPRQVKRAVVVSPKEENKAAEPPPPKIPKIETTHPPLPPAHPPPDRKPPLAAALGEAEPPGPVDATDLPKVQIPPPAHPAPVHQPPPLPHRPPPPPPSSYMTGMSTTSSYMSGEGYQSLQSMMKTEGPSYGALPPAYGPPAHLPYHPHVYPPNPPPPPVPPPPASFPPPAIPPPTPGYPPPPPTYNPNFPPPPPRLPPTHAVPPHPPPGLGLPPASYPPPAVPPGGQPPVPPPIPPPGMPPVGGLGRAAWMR
Procedure, shortened: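 Radiometric 33P assay: ATP, test compound (in 10% DMSO) and premixed substrate/enzyme incubated 60 min at 30 °C, stopped with 2% H3PO4. 33Pi incorporation counted by scintillation; least-squares curve fit.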

[3] = A673, read-out: Cellular Potency IC50 (nM) (in A673 cells)
[4] = A673 cells, 72 hours, read-out: A673 IC50
[5] = ATP 0.3 μM, read-out: CDK12 IC50
[6] = read-out: CKD12 Biochemical Potency IC50

Compound | Ratio of Biochemical Potency:Cellular Potency (A673 cells [1]) | IC50 (A673 cells [1]; [3]) | IC50 (A673 cells [1]; [4]) | IC50 (Human CDK7/CycH/MAT1) | Cyclin K Degrader Activity (A673 potency shift + MLN4924) (A673 cells [2]) | IC50 (Human CDK12 wt/CycK; [5]) | CDK7/CDK12 (Human CDK12 wt/CycK) | IC50 (Human CDK12 wt/CycK; [6])
O[C@H]1CNCC[C@@H]1CNc1cc(NCc2ccc(-c3ccccn3)cc2F)n2ncc(C3CC3)c2n1 [PPA-020] | 30.00 | 3.3 nM | 3.3 nM | 311 nM | +++ (>5 fold change.) | 99 nM | 3.1 | 99 nM
c1ccc(-c2ccc(CNc3cc(N[C@H]4CCNC4)nc4c(C5CC5)cnn34)cc2)nc1 [PPA-037] | 40.00 | 0.7 nM | 0.7 nM | 250 nM | +++ (>5 fold change.) | 28 nM | 8.9 | 28 nM
CN(c1cc(NCc2ccc(-c3ccccn3)cc2)n2ncc(C3CC3)c2n1)C1CCNCC1 [PPA-039] | 60.36 | 2.8 nM | 2.8 nM | 2090 nM | + (>1 and ≤2 fold change.) | 169 nM | 12.4 | 169 nM
c1ccc(-c2ccc(CNc3cc(NCC4CCNCC4)nc4c(C5CC5)cnn34)cc2)nc1 [PPA-040] | 36.78 | 20.2 nM | 20.2 nM | 6920 nM | +++ (>5 fold change.) | 743 nM | 9.3 | 743 nM
c1ccc(-c2ccc(CNc3cc(N[C@H]4CCCNC4)nc4c(C5CC5)cnn34)cc2)nc1 [PPA-044] | 18.89 | 2.7 nM | 2.7 nM | 338 nM | +++ (>5 fold change.) | 51 nM | 6.6 | 51 nM
c1ccc(-c2ccc(CNc3cc(NC4CNC4)nc4c(C5CC5)cnn34)cc2)nc1 [PPA-047] | 1.79 | 17.3 nM | 17.3 nM | 892 nM | ++ (>2 and ≤5 fold change.) | 31 nM | 28.8 | 31 nM
c1ccc(-c2ccc(CNc3cc(OC4CNC4)nc4c(C5CC5)cnn34)cc2)nc1 [PPA-049] | 4.64 | 6.9 nM | 6.9 nM | 982 nM | +++ (>5 fold change.) | 32 nM | 30.7 | 32 nM
c1ccc(-c2ccc(CNc3cc(OCC4CNC4)nc4c(C5CC5)cnn34)cc2)nc1 [PPA-055] | 5.38 | 24.9 nM | 24.9 nM | 2390 nM | ++ (>2 and ≤5 fold change.) | 134 nM | 17.8 | 134 nM
c1ccc(-c2ccc(CNc3cc(C4CNC4)nc4c(C5CC5)cnn34)cc2)nc1 [PPA-058] | 29.57 | 6.9 nM | 6.9 nM | 5260 nM | +++ (>5 fold change.) | 204 nM | 25.8 | 204 nM
O[C@H]1CNCC[C@@H]1CNc1cc(NCc2ccc(-c3ccccc3)cc2)n2ncc(C3CC3)c2n1 [PPA-059] | 12.54 | 12.6 nM | 12.6 nM | 637 nM | +++ (>5 fold change.) | 158 nM | 4.0 | 158 nM
c1ccc(-c2ccc(CNc3cc(O[C@@H]4CCNC4)nc4c(C5CC5)cnn34)cc2)nc1 [PPA-060] | 26.55 | 2.9 nM | 2.9 nM | 2870 nM | +++ (>5 fold change.) | 77 nM | 37.3 | 77 nM
c1ccc(-c2ccc(CNc3cc(O[C@H]4CCCNC4)nc4c(C5CC5)cnn34)cc2)nc1 [PPA-064] | 15.00 | 1.2 nM | 1.2 nM | 268 nM | +++ (>5 fold change.) | 18 nM | 14.9 | 18 nM
c1ccc(-c2ccc(CNc3cc(O[C@H]4CCNC4)nc4c(C5CC5)cnn34)cc2)nc1 [PPA-065] | 9.06 | 3.2 nM | 3.2 nM | 284 nM | +++ (>5 fold change.) | 29 nM | 9.8 | 29 nM
CCc1cnn2c(NCc3ccc(-c4ccccc4)cc3F)cc(NC[C@H]3CCNC[C@@H]3O)nc12 [PPA-069] | 11.62 | 10.5 nM | 10.5 nM | 267 nM | ++ (>2 and ≤5 fold change.) | 122 nM | 2.2 | 122 nM
N#Cc1cnn2c(NCc3ccc(-c4ccccc4)cc3F)cc(NC[C@H]3CCNC[C@@H]3O)nc12 [PPA-070] | 20.19 | 5.3 nM | 5.3 nM | 562 nM | +++ (>5 fold change.) | 107 nM | 5.3 | 107 nM
N#Cc1cnn2c(NCc3ccc(-c4ccccc4)cc3F)cc(N[C@H]3CCNC3)nc12 [PPA-071] | 28.57 | 1.4 nM | 1.4 nM | 1550 nM | +++ (>5 fold change.) | 40 nM | 38.8 | 40 nM
Fc1cc(-c2ccccn2)ccc1CNc1cc(N[C@H]2CCNC2)nc2c(C3CC3)cnn12 [PPA-072] | 42.50 | 0.8 nM | 0.8 nM | 1000 nM | +++ (>5 fold change.) | 34 nM | 29.4 | 34 nM
c1ccc(-c2ccc(CNc3cc(N4CC5CC(C4)N5)nc4c(C5CC5)cnn34)cc2)nc1 [PPA-080] | 12.06 | 12.6 nM | 12.6 nM | 1210 nM | +++ (>5 fold change.) | 152 nM | 8.0 | 152 nM
N#Cc1cnn2c(NCc3ccc(-c4ccccc4)cc3)cc(N[C@H]3CCNC3)nc12 [PPA-085] | 17.69 | 1.3 nM | 1.3 nM | 675 nM | ++ (>2 and ≤5 fold change.) | 23 nM | 29.3 | 23 nM
N#Cc1cnn2c(NCc3ccc(-c4ccccn4)cc3)cc(N[C@H]3CCNC3)nc12 [PPA-086] | 12.22 | 0.9 nM | 0.9 nM | 417 nM | +++ (>5 fold change.) | 11 nM | 37.9 | 11 nM
CO[C@H]1CNCC[C@@H]1CNc1cc(NCc2ccc(-c3ccccn3)cc2)n2ncc(C3CC3)c2n1 [PPA-087] | 57.82 | 8.7 nM | 8.7 nM | 1630 nM | +++ (>5 fold change.) | 503 nM | 3.2 | 503 nM
C1=C(c2cc(NCc3ccc(-c4ccccn4)cc3)n3ncc(C4CC4)c3n2)CNCC1 [PPA-088] | 24.00 | 2.5 nM | 2.5 nM | 762 nM | +++ (>5 fold change.) | 60 nM | 12.7 | 60 nM
